Where two headings read alike, the source gives them in different places.
Experiments:
HIF-1β protein = assay: Western blot, HIF-1β protein in T47D nuclear extract; format: cell-based, human
Experimental: Due to the low abundance of HIF-1α protein in whole cell extract, nuclear extract is prepared and the level of HIF-1α protein in the nuclear extract determined by Western blot. Briefly, exponentially grown T47D cells are exposed to compound 2 for 30 minutes. […] Nuclear extracts are prepared from control and treated cells, separated on a SDS/PAGE gel, the separated proteins transferred to a nitrocellulose membrane, incubated with the primary antibodies (anti-HIF-1α, and anti-HIF-1β monoclonal antibodies, Novus Biologicals), secondary antibody biotinylated anti-mouse immunoglobulin G and Vectastain ABC reagent (Vector Laboratories), and developed using ECL reagents (Amersham Biosciences). […] No change in HIF-1β protein level is observed across the treatments. It is reasonable to conclude that the selectivity of compound 2 towards hypoxia-activated HIF-1 is caused by selective blockade of the hypoxic induction of HIF-1 protein.

secreted VEGF protein [1] = assay: induction of secreted VEGF protein by 1,10-phenanthroline in T47D cells (ELISA); format: cell-based, human; details: 10 μM, 16 hr
Experimental: Cell plating and compound treatment is similar to those described earlier for hypoxic conditions. […] At the end of the incubation, the concentration of secreted VEGF protein in the conditioned media is determined by ELISA and the data normalized by the number of viable cells.

[2] = target: T1, recombinant VEGF protein standard (Homo sapiens, UniProt P15692); assay: interference with the VEGF ELISA using VEGF standard
T1 construct: purchased R & D Systems
Experimental: (§1) The effects of compounds 1 and 2 on hypoxic induction of secreted VEGF protein are examined in T47D cells. Exponentially grown T47D cells are plated at the density of 30,000 cells/well into 96-well plates. Compound treatment and hypoxic exposure are the same as described. Following incubation, the concentration of secreted VEGF protein in the conditioned media is determined by ELISA (R & D Systems) and the data normalized by the number of viable cells. Results shown in FIG. 4 are averages from a representative experiment performed in quadruplicate, the bars represent standard error. An asterisk (*) indicates the level of significance (p<0.01) relative to the hypoxic control, two asterisks (**) (p<0.0001), and no asterisk indicates no statistical difference (ANOVA and Fisher's PLSD post hoc test).
As discussed earlier, one important HIF-1 target gene is VEGF, a key factor for tumor angiogenesis. Compounds that can inhibit both HIF-1 activation and the production of secreted VEGF protein represent potential efficacious chemotherapeutic agents that inhibit both tumor survival and hypoxia induced angiogenesis. […] Following incubation, the concentration of secreted VEGF protein in the conditioned media is determined by ELISA (R & D Systems) and the data normalized by the number of viable cells. […] The level of significance (p<0.01) is determined by ANOVA and Fisher's PLSD post hoc test. […]

HIF-1 [3] = assay: pTK-HRE3-luc reporter assay, hypoxia-induced HIF-1 activation in T47D cells
secreted VEGF protein [4] = assay: hypoxic induction of secreted VEGF protein in T47D cells (ELISA); format: cell-based, human; details: for reduction of secreted VEGF protein induced by hypoxia: 96-well, 1 at 100 nM, 2 at 10 nM, PD98059 at 100 μM; for concentration at which hypoxic induction of secreted VEGF protein is completely blocked / inhibition of VEGF protein levels relative to the hypoxia-induced positive control: 12-well; for inhibition of VEGF protein levels relative to the hypoxia-induced positive control: p<0.01
Experimental: as §1
As discussed earlier, one important HIF-1 target gene is VEGF, a key factor for tumor angiogenesis. Compounds that can inhibit both HIF-1 activation and the production of secreted VEGF protein represent potential efficacious chemotherapeutic agents that inhibit both tumor survival and hypoxia induced angiogenesis. The effects of four active examples (compounds 2, 3, 4, and 5) on hypoxic induction of secreted VEGF protein are examined in T47D cells and the data are presented in FIG. 9. Exponentially grown T47D cells are plated at the density of 356,000 cells/well into 12-well plates. Compound treatment and hypoxic exposure are the same as described. Following incubation, the concentration of secreted VEGF protein in the conditioned media is determined by ELISA (R & D Systems) and the data normalized by the number of viable cells. […] Hypoxic exposure leads to a 2-fold increase in the level of secreted VEGF protein. […] The level of significance (p<0.01) is determined by ANOVA and Fisher's PLSD post hoc test. The exemplary compounds 2, 3, and 4 all completely block hypoxic induction of secreted VEGF protein at concentrations as low as 10 nM. The exemplary compound 5 inhibits the hypoxic induction by 60% at 10 nM, and completely blocks at 100 nM. When tested at 100 nM, none of the compounds interfere with the ELISA assay using VEGF standard (no greater than 15% difference).

pGL3 Control = assay: luciferase expression from control plasmid pGL3 Control; format: cell-based, human
Experimental: The chemical structures of active compounds 1 and 2 are shown above. Compound 2 is the known compound manassantin B and 1 is a novel compound of the present invention. […] Similar results are obtained from separate experiments. The IC50 is 3 nM for 2 and 30 nM for 1. Complete inhibition is observed at 10 nM for 2 and 100 nM for 1.

HIF-1 [5] = assay: pTK-HRE3-luc reporter assay, 1,10-phenanthroline-induced HIF-1 activation in T47D cells; format: cell-based; details: Homo sapiens, read-out: inhibition of HIF-1 activation by 1,10-phenanthroline, 1 μM
Source text: Iron chelators and transition metals (such as cobalt and nickel) can activate HIF-1 and have been used as chemical hypoxia mimetics. […] The expression of the HIF-1α subunit quantitatively determines HIF-1 biological activity (activation of transcription).

T47D cells = assay: T47D cell viability / cytotoxicity; format: cell-based, human
[6] = T47D cell viability / cytotoxicity; format: cell-based, human; details: human; 100 μM; read-out: reduction of T47D cell viability

T1 sequence (P15692 27-191 isoform P15692-4): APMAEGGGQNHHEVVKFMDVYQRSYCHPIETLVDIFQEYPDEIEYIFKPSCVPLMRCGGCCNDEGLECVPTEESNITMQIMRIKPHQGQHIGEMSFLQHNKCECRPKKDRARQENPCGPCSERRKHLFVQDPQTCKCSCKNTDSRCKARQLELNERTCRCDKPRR

## c1cnc2c(c1)ccc1cccnc12 [1,10-phenanthroline, reference compound]
HIF-1β protein
  HIF-1β protein level: no significant effect
Secreted VEGF protein [1]
  secreted VEGF protein level in T47D cells: significantly induces

## COc1cc(C(O)C(C)Oc2ccc(C3OC(c4ccc(OC(C)C(O)c5ccc6c(c5)OCO6)c(OC)c4)C(C)C3C)cc2OC)ccc1O (stereo not drawn) [Compound 1]
[2]
  interference with the ELISA assay: neither compound interferes
HIF-1 [3]; Homo sapiens, T47D, read-out: IC50, inhibition of hypoxic activation of HIF-1
  IC50: 30 nM
HIF-1 [3]; T47D, pHRE-luc assay
  concentration at which complete inhibition of hypoxic activation of HIF-1 is observed: 100 nM
Secreted VEGF protein [4]
  reduction of secreted VEGF protein induced by hypoxia: statistically significant reduction
pGL3 Control; 1,10-phenanthroline experiment (FIG. 5)
  luciferase expression from the pGL3-Control plasmid: Neither compound exerts significant effect
pGL3 Control; hypoxia experiment (FIG. 3)
  luciferase expression from the control plasmid (pGL3 Control): No statistically significant difference
HIF-1 [5]
  inhibition at 1 µM: 45%

## COc1ccc(C(O)C(C)Oc2ccc(C3OC(c4ccc(OC(C)C(O)c5ccc(OC)c(OC)c5)c(OC)c4)C(C)C3C)cc2OC)cc1OC (stereo not drawn) [Compound 3]
HIF-1 [3]; T47D, pHRE-luc assay
  concentration at which complete inhibition of hypoxic activation of HIF-1 is observed: 10 nM
Secreted VEGF protein [4]
  concentration at which hypoxic induction of secreted VEGF protein is completely blocked: 10 nM
  inhibition of VEGF protein levels relative to the hypoxia-induced positive control: significantly inhibit

## COc1ccc(C(O)C(C)Oc2ccc(C3OC(c4ccc(OC(C)C(O)c5ccc6c(c5)OCO6)c(OC)c4)C(C)C3C)cc2OC)cc1OC (stereo not drawn) [Compound 4]
HIF-1 [3]; T47D, pHRE-luc assay
  concentration at which complete inhibition of hypoxic activation of HIF-1 is observed: 10 nM
Secreted VEGF protein [4]
  concentration at which hypoxic induction of secreted VEGF protein is completely blocked: 10 nM
  inhibition of VEGF protein levels relative to the hypoxia-induced positive control: significantly inhibit

## COc1ccc(C(O)C(C)Oc2ccc(C3OC(c4ccc(OC)c(OC)c4)C(C)C3C)cc2OC)cc1OC (stereo not drawn) [Compound 5]
HIF-1 [3]; T47D, pHRE-luc assay
  concentration at which complete inhibition of hypoxic activation of HIF-1 is observed: 100 nM
Secreted VEGF protein [4]
  concentration at which hypoxic induction of secreted VEGF protein is completely blocked: 100 nM
  inhibition of VEGF protein levels relative to the hypoxia-induced positive control: significantly inhibit
Secreted VEGF protein [4]; Homo sapiens, 10 nM
  inhibition at 0.01 µM: 60%

## COc1cccc(-c2cc(=O)c3ccccc3o2)c1N [PD98059, reference compound]
T47D cells
  cytotoxicity: no significant cytotoxicity
HIF-1 [3]
  concentration for 70% inhibition of hypoxic activation of HIF-1: 10 µM
HIF-1 [3]; T47D, pHRE-luc assay
  concentration at which hypoxic activation of HIF-1 is completely inhibited: 100 µM
HIF-1 [3]; read-out: IC50 for inhibition of hypoxia-induced HIF-1 activation, T47D cells, hypoxic conditions 16 hr
  IC50: 2000 nM
Secreted VEGF protein [4]
  reduction of secreted VEGF protein induced by hypoxia: only 1 and 2 treatments lead to statistically significant reduction

## O=c1c(-c2ccc(O)cc2)coc2cc(O)cc(O)c12 [genistein, reference compound]
[6]
  cytotoxicity at 100 μM: 50%
HIF-1 [3]
  concentration for 70% inhibition of hypoxic activation of HIF-1: 10 µM
HIF-1 [3]; Homo sapiens, T47D, 16 h, read-out: IC50 for inhibition of hypoxia-induced HIF-1 activation
  IC50: 1000 nM
